# Assay results as given in ChEMBL document CHEMBL1141263, “Sesquiterpenoids and cytotoxic lignans from the bark of Libocedrus chevalieri” (J Nat Prod, 2007).
# Key:
# [1] = Inhibition of tubulin polymerization
# [2] = tested on: KB; test: Cytotoxicity against human KB cells by microculture tetrazolium assay; type: functional, cell-based
# [3] = tested on: L1210; test: Cytotoxicity against mouse L1210 cells by microculture tetrazolium assay; type: functional, cell-based
smiles,measurement,setting,value
COc1cc([C@@H]2c3cc4c(c(OC)c3[C@H](O)[C@H]3COC(=O)[C@H]23)OCO4)cc(OC)c1OC,IC50,[1],5 µM
same,IC50,[2],0.011 µM
COc1cc([C@@H]2c3cc4c(c(OC)c3[C@@H](O)[C@H]3COC(=O)[C@H]23)OCO4)cc(OC)c1OC,IC50,[1],9 µM
same,IC50,[3],82 µM
same,IC50,[2],0.045 µM
